Measurements taken from ChEMBL document CHEMBL3885861, “Open TG-GATES”.

Organism: Rattus norvegicus
Assay: Open TG-GATES - Regimen: Daily Repeat
Type: toxicity, organism-based, Sprague-Dawley
Design: regimen Daily Repeat, gender Male, age 6 weeks
Settings: in vivo, po, 30 mg/kg, route gavage, dose level Middle; for APTT / Bas / Eos / Fbg / Hb / Ht / Lym / MCH / MCHC / MCV / Mono / Neu / PT / Plat / RBC / Ret / WBC: tissue Blood; for KIDNEY_L / KIDNEY_R / KIDNEY_TOTAL: tissue Kidney; for LIVER: tissue Liver; for A/G / ALP / ALT / AST / BUN / CRE / Ca / Cl / DBIL / GLC / IP / K / LDH / Na / PL / RALB / TBIL / TC / TG / TP / gamma-GTP: tissue Plasma

CCC1(c2ccccc2)C(=O)NC(=O)NC1=O [PHENOBARBITAL]
TERMINAL_BW (72 h, time 3 day): 222.1 g | APTT (72 h, time 3 day): 15.2 s | Bas (72 h, time 3 day): 0% | Eos (72 h, time 3 day): 0.6% | Fbg (72 h, time 3 day): 228.4 mg/dL | Hb (72 h, time 3 day): 13.5 g/dL | Ht (72 h, time 3 day): 40.1% | Lym (72 h, time 3 day): 81.2% | MCH (72 h, time 3 day): 21.8 pg | MCHC (72 h, time 3 day): 33.7% | MCV (72 h, time 3 day): 64.9 fL | Mono (72 h, time 3 day): 6.4% | Neu (72 h, time 3 day): 12% | PT (72 h, time 3 day): 11.2 s | Plat (72 h, time 3 day): 118.8 x10_4/uL | RBC (72 h, time 3 day): 618 x10_4/ul | Ret (72 h, time 3 day): 7.6% | WBC (72 h, time 3 day): 95.1 x10_2/uL | KIDNEY_L (72 h, time 3 day): 0.9 g | KIDNEY_R (72 h, time 3 day): 0.9 g | KIDNEY_TOTAL (72 h, time 3 day): 1.9 g | LIVER (72 h, time 3 day): 12.5 g | A/G (72 h, time 3 day): 1.6 | ALP (72 h, time 3 day): 932 IU/L | ALT (72 h, time 3 day): 36.6 IU/L | AST (72 h, time 3 day): 63.2 IU/L | BUN (72 h, time 3 day): 17.2 mg/dL | CRE (72 h, time 3 day): 0.6 mg/dL | Ca (72 h, time 3 day): 11.2 mg/dL | Cl (72 h, time 3 day): 105.2 meq/L | DBIL (72 h, time 3 day): 0.026 mg/dL | GLC (72 h, time 3 day): 201 mg/dL | IP (72 h, time 3 day): 9.2 mg/dL | K (72 h, time 3 day): 4.5 meq/L | LDH (72 h, time 3 day): 128.8 IU/L | Na (72 h, time 3 day): 139.8 meq/L | PL (72 h, time 3 day): 168.6 mg/dL | RALB (72 h, time 3 day): 3.6 g/dL | TBIL (72 h, time 3 day): 0.4 mg/dL | TC (72 h, time 3 day): 92 mg/dL | TG (72 h, time 3 day): 116.4 mg/dL | TP (72 h, time 3 day): 5.9 g/dL | gamma-GTP (72 h, time 3 day): 1.2 IU/L | TERMINAL_BW ([…], time 7 day): 261.6 g | TERMINAL_BW ([…], time 14 day): 299.2 g | TERMINAL_BW ([…], time 28 day): 388.6 g | APTT ([…], time 7 day): 15.6 s | Bas ([…], time 7 day): 0% | Eos ([…], time 7 day): 0.2% | Fbg ([…], time 7 day): 242.4 mg/dL | Hb ([…], time 7 day): 13.6 g/dL | Ht ([…], time 7 day): 40.8% | Lym ([…], time 7 day): 80.8% | MCH ([…], time 7 day): 21.6 pg | MCHC ([…], time 7 day): 33.3% | MCV ([…], time 7 day): 64.9 fL | Mono ([…], time 7 day): 6.6% | Neu ([…], time 7 day): 12% | PT ([…], time 7 day): 11.6 s | Plat ([…], time 7 day): 120.5 x10_4/uL | RBC ([…], time 7 day): 629.6 x10_4/ul | Ret ([…], time 7 day): 6.9% | WBC ([…], time 7 day): 121 x10_2/uL | APTT ([…], time 14 day): 17.6 s | Bas ([…], time 14 day): 0% | Eos ([…], time 14 day): 0% | Fbg ([…], time 14 day): 229 mg/dL | Hb ([…], time 14 day): 14.6 g/dL | Ht ([…], time 14 day): 44.3% | Lym ([…], time 14 day): 88% | MCH ([…], time 14 day): 20.3 pg | MCHC ([…], time 14 day): 33% | MCV ([…], time 14 day): 61.5 fL | Mono ([…], time 14 day): 3% | Neu ([…], time 14 day): 8.4% | PT ([…], time 14 day): 11.6 s | Plat ([…], time 14 day): 114.8 x10_4/uL | RBC ([…], time 14 day): 720.6 x10_4/ul | Ret ([…], time 14 day): 4.8% | WBC ([…], time 14 day): 130.2 x10_2/uL | APTT ([…], time 28 day): 18.2 s | Bas ([…], time 28 day): 0% | Eos ([…], time 28 day): 1% | Fbg ([…], time 28 day): 215 mg/dL | Hb ([…], time 28 day): 15.1 g/dL | Ht ([…], time 28 day): 45% | Lym ([…], time 28 day): 82.6% | MCH ([…], time 28 day): 19.5 pg | MCHC ([…], time 28 day): 33.6% | MCV ([…], time 28 day): 58 fL | Mono ([…], time 28 day): 5.2% | Neu ([…], time 28 day): 11.6% | PT ([…], time 28 day): 12.2 s | Plat ([…], time 28 day): 103 x10_4/uL | RBC ([…], time 28 day): 777.2 x10_4/ul | Ret ([…], time 28 day): 3% | WBC ([…], time 28 day): 150 x10_2/uL | KIDNEY_L ([…], time 7 day): 1.1 g | KIDNEY_R ([…], time 7 day): 1.1 g | KIDNEY_TOTAL ([…], time 7 day): 2.2 g | KIDNEY_L ([…], time 14 day): 1.2 g | KIDNEY_R ([…], time 14 day): 1.2 g | KIDNEY_TOTAL ([…], time 14 day): 2.3 g | KIDNEY_L ([…], time 28 day): 1.3 g | KIDNEY_R ([…], time 28 day): 1.3 g | KIDNEY_TOTAL ([…], time 28 day): 2.7 g | LIVER ([…], time 7 day): 14.7 g | LIVER ([…], time 14 day): 15.9 g | LIVER ([…], time 28 day): 18 g | A/G ([…], time 7 day): 1.5 | ALP ([…], time 7 day): 888 IU/L | ALT ([…], time 7 day): 29.8 IU/L | AST ([…], time 7 day): 58.4 IU/L | BUN ([…], time 7 day): 18.8 mg/dL | CRE ([…], time 7 day): 0.6 mg/dL | Ca ([…], time 7 day): 11 mg/dL | Cl ([…], time 7 day): 106.4 meq/L | DBIL ([…], time 7 day): 0.042 mg/dL | GLC ([…], time 7 day): 204 mg/dL | IP ([…], time 7 day): 8.8 mg/dL | K ([…], time 7 day): 4.6 meq/L | LDH ([…], time 7 day): 95 IU/L | Na ([…], time 7 day): 140.8 meq/L | PL ([…], time 7 day): 157 mg/dL | RALB ([…], time 7 day): 3.6 g/dL | TBIL ([…], time 7 day): 0.4 mg/dL | TC ([…], time 7 day): 85 mg/dL | TG ([…], time 7 day): 115.2 mg/dL | TP ([…], time 7 day): 6 g/dL | gamma-GTP ([…], time 7 day): 1.2 IU/L | A/G ([…], time 14 day): 1.4 | ALP ([…], time 14 day): 718.2 IU/L | ALT ([…], time 14 day): 27.6 IU/L | AST ([…], time 14 day): 61.8 IU/L | BUN ([…], time 14 day): 19.6 mg/dL | CRE ([…], time 14 day): 0.6 mg/dL | Ca ([…], time 14 day): 10.9 mg/dL | Cl ([…], time 14 day): 107 meq/L | DBIL ([…], time 14 day): 0.008 mg/dL | GLC ([…], time 14 day): 205.8 mg/dL | IP ([…], time 14 day): 8.5 mg/dL | K ([…], time 14 day): 4.2 meq/L | LDH ([…], time 14 day): 84.6 IU/L | Na ([…], time 14 day): 142 meq/L | PL ([…], time 14 day): 148.4 mg/dL | RALB ([…], time 14 day): 3.8 g/dL | TBIL ([…], time 14 day): 0.3 mg/dL | TC ([…], time 14 day): 79.2 mg/dL | TG ([…], time 14 day): 116.2 mg/dL | TP ([…], time 14 day): 6.5 g/dL | gamma-GTP ([…], time 14 day): 1 IU/L | A/G ([…], time 28 day): 1.5 | ALP ([…], time 28 day): 631.8 IU/L | ALT ([…], time 28 day): 32.2 IU/L | AST ([…], time 28 day): 58.6 IU/L | BUN ([…], time 28 day): 20.6 mg/dL | CRE ([…], time 28 day): 0.4 mg/dL | Ca ([…], time 28 day): 10.4 mg/dL | Cl ([…], time 28 day): 108 meq/L | DBIL ([…], time 28 day): 0.03 mg/dL | GLC ([…], time 28 day): 194.4 mg/dL | IP ([…], time 28 day): 7.5 mg/dL | K ([…], time 28 day): 4.8 meq/L | LDH ([…], time 28 day): 70 IU/L | Na ([…], time 28 day): 139.6 meq/L | PL ([…], time 28 day): 143.4 mg/dL | RALB ([…], time 28 day): 3.8 g/dL | TBIL ([…], time 28 day): 0.4 mg/dL | TC ([…], time 28 day): 76.8 mg/dL | TG ([…], time 28 day): 88.8 mg/dL | TP ([…], time 28 day): 6.3 g/dL | gamma-GTP ([…], time 28 day): 2.6 IU/L
